For experiment [1], the system named is 3D co-culture spheroids of MDA-MB-231 and primary murine CAFs. The experiment is described as follows: 3D growth studies, spheroid size of co-culture spheroids. The conditions noted are these: 100 nM, 72 h. In kind it is cell-based, human MDA-MB-231. The method, then: To emulate the TNBC microenvironment, 3D spheroids composed of MDA-MB-231 and CAFs at a ratio of 1:2 in a collagen-based matrix were generated. The culture medium of both cell lines was mixed (DMEM:RPMI 1640 (1:1) + 12.5% FCS + 1% PS) and supplemented with 0.05 mg/mL collagen type I (Thermo Fisher Scientific; #A1048301). On day 1, 3000 cells were seeded into a low-attachment 96 well plate (Greiner; #650970). Spheroids were grown for 72 h before proceeding with compound treatment on day 4, and analysis on day 7 according to the “Spheroid immunostaining”, “3D cell viability”, or “3D growth” studies presented in the results section.
Co-culture spheroids were generated for 72 h before they were exposed to either DMSO (Roth; #A994.1) alone at maximal 0.1%, 100 nM paclitaxel (Santa Cruz Biotechnology; #sc-201439), or 100 nM of compound (1) for another 72 h. At least three spheroids per treatment group were analyzed. For that purpose, brightfield images of the spheroids were acquired at 100× g magnification using the microscope Axio Vert.A1 (Zeiss). The spheroid surface area was quantified in brightfield images using Fiji (open-source software; version 1.52i) and was further defined as spheroid size. In each individual experiment spheroid size was normalized to the smallest (which was set to 0%) and to the largest spheroids (which was set to 100%).

Experiment [2] concerns MDA-MB-231 monoculture spheroids. The experiment is described as follows: 3D invasion of monoculture spheroids into matrigel. In kind it is cell-based, human. The conditions noted are these: 10 nM, 48 h. The method, then: To study TNBC invasion in an extracellular matrix (ECM)-like environment, mono-culture spheroids of MDA-MB-231 were generated in matrigel®, as described. In brief, 3000 MDA-MB-231 cells were seeded in 0.25% (v/v) matrigel® (Corning, Taufkirchen, Germany; #356432) into a low-attachment 96 well plate (Greiner; #650970 or Cenibra, Bramsche, Germany; #ULA-96U). For cell aggregation, cells were centrifugated for 10 min at 136× g at 4 °C before being grown for 72 h. Invasion was allowed for another […] before analyzing at least three spheroids per treatment group. For that purpose, brightfield images of the spheroids were acquired at 50× g magnification using the microscope Axio Vert.A1 (Zeiss). The spheroid area before treatment and the spheroid area including the invaded area after compound treatment were quantified in brightfield images using Fiji (open-source software; version 1.52i).
Figure 6 Compound (1s) blocks TNBC monoculture spheroid invasion in a matrigel®-based extracellular matrix (ECM). […] (a) Invaded area was measured using Fiji (open-source software; version 1.52i) with manually picked positions (white squares) to determine the outline (yellow line) of the spheroid area within 0 h and after 48-h treatment. […] (c) Invaded area is calculated by normalizing the spheroid area after 48 h treatment to the spheroid size at 0 h. […]

For experiment [3], the system named is MDA-MB-468-UnaG. The experiment can be described thus: Cell cycle studies (PI-DNA flow cytometry) in MDA-MB-468-UnaG. Format: cell-based. The conditions noted are these: normoxia. As to the method:
To investigate cell cycle progression in the presence of compound (1s) or paclitaxel (Santa Cruz Biotechnology; #sc-201439), we quantified the DNA content in the cell. On day 1, the cells were seeded in 1 mL into a 24 well plate (Greiner; #662160). On day 2, MDA-MB-468-UnaG were pre-treated either without (normoxia) or with 100 µM CoCl2 (hypoxia) (Sigma-Aldrich; #C8661) for 24 h before compounds were applied. On day 2 for MDA-MB-231 or on day 3 for MDA-MB-468-UnaG, paclitaxel was applied at the concentrations 15 nM, 37 nM, and 100 nM, and compound (1s) was applied at concentrations ranging from 2 nM to 1000 nM. Post-treatment cells were washed in 1× PBS (Thermo Fisher Scientific; #14190); fixed in 70% (v/v) ethanol overnight at 4 °C; washed again in 1× PBS; and, finally, DNA was stained for 15 min at 37 °C in the presence of 10 µg/mL propium iodide (PI; Sigma-Aldrich; #4864) and 100 µg/mL RNase A (Thermo Fisher Scientific; #EN0531) dissolved in 0.1% triton™ X-100 (Sigma-Aldrich; #X100), dissolved in PBS. The fluorescence signal resulting from PI-DNA complex formation was recorded using the flow cytometer CytoFlex (Beckmann Coulter, Krefeld, Germany). The cell cycle phase population was determined based on the DNA content in a set of chromosomes (n) in a cell using the integrated software CytExpert (Beckmann Coulter): sub-G0/G1 (<2n), G0/G1 (2n), S (>2n, <4n), G2/M (4n) or hyperploid cells (>4n) (see Figure S10).
(In general: Flow cytometry measures light scatter and fluorescence of single cells or particles in a stream.)

For the molecule `COc1ccc2c3c(c4cc(OC)c(OC)cc4c2c1)CN1CCCC1C3O` (stereo not shown) [Compound (1), O-methyltylophorinidine], the “reduction of spheroid growth compared to untreated spheroids” value in experiment [1] was 40%.

Take `COc1ccc2c3c(c4cc(OC)c(OC)cc4c2c1)CN1CCCC1C3O` (stereo not shown) [Compound (1s), O-methyltylophorinidine]: the “blockade of invasion (invaded area)” value in experiment [2] was “approximately 65%”. Moreover, the “sub-G0/G1 population” value in experiment [3] (48 h) is “increase in the sub-G0/G1 population”. Further, the “cell cycle phase population” value in experiment [3] ((1s) 20 nM 72 h, paclitaxel within 24 h) is reported as “significant increase in G2/M population”.

Values taken from PMC9499467, “Phenanthroindolizidine Alkaloids Isolated from Tylophora ovata as Potent Inhibitors of Inflammation, Spheroid Growth, and Invasion of Triple-Negative Breast Cancer” (International Journal of Molecular Sciences, 2022).
